Tests used:
Hep3B cells = assay: Cell survival rate (EZ-CYTOX), human liver cancer cell line; assay type: cell-based; conditions: 10 to 60 μM, 24 hours, FIG. 1a
Procedure: (§1) The ginsenoside F2 prepared in Example 1 was treated to Hep3B cells, a human liver cancer cell line, Hepa1-6 cells, a mouse liver cancer cell line, and mouse normal hepatocytes at various concentrations (10 to 60 μM). After 24 hours, the survival rate of the cells was measured using EZ-CYTOX (Daeil Lab Service, Korea), which is used to measure the cell survival rate, according to the experimental method provided by the manufacturer.

Hepa1-6 cells = assay: Cell survival rate (EZ-CYTOX), mouse liver cancer cell line; assay type: cell-based; conditions: 10 to 60 μM, 24 hours, FIG. 1b
Procedure: as §1

mouse normal hepatocytes = assay: Cell survival rate (EZ-CYTOX), normal hepatocytes; assay type: cell-based; conditions: 10 to 60 μM, 24 hours, FIG. 1c
Procedure: as §1

[1] = tested on: human liver cancer cell line (Hep3B); assay: Cell death by phase contrast microscopy and DAPI/TUNEL staining; assay type: cell-based; conditions: 10 to 60 μM, 24 hours
Procedure: The cell-killing effect of ginsenoside F2 on the human liver cell line (Hep3B) was confirmed using a phase contrast microscope and a fluorescence microscope.
Specifically, the ginsenoside F2 prepared in Example 1 was treated to the human liver cancer cell line (Hep3B) at various concentrations (10 to 60 μM), and after 24 hours, the state of the cells was observed under the phase contrast microscope. Further, the cells were stained using DAPI (4′,6-diamidino-2-phenylindole, Vector laboratory, USA) and TUNEL (terminal deoxyribonucleotidyl transferase mediated dUTP nick end labeling, Roche life science, USA). The staining was carried out according to the method provided by the manufacturer, and the degree of staining was observed under the fluorescence microscope.

[2] = tested on: mouse liver cancer cell line (Hepa1-6); assay: Genomic DNA fragmentation by gel electrophoresis; assay type: cell-based; conditions: Hepa1-6, 24 hours, FIG. 3
Procedure: The cell-killing effect of ginsenoside F2 on the mouse liver cancer cell line (Hepa1-6) was confirmed by confirming the degree of DNA degradation.
Specifically, the ginsenoside F2 prepared in Example 1 was treated to the mouse liver cancer cell line (Hepa1-6) at various concentrations ([…]). After 24 hours, the cells were harvested, and the genomic DNA was extracted using a genomic DNA extraction kit (iNtRON, USA) according to the experimental method provided by the manufacturer, and subsequently, a gel electrophoresis was carried out.

[3] = tested on: liver cancer-induced mice; assay: Diethylnitrosamine (DEN)-induced liver cancer formation in mice: size, number, weight of cancer tissues; assay type: in vivo, mouse; conditions: 50 mg/kg three times a week for 20 weeks, vs vehicle-treated group
Procedure: (§2) Diethylnitrosamine (DEN), a hepatocarcinogen, was injected intraperitoneally into 14-day-old male mice at a concentration of 20 mg/kg to induce the formation of liver cancer. A vehicle (olive oil) or ginsenoside F2 (50 mg/kg) was treated three times a week from 20 weeks of age, and then 20 weeks later, the mice were sacrificed to confirm the inhibition of liver cancer formation.
The mice sacrificed in Example 3-1 above were cut open ventrally to remove the liver. Then, the size, number, and weight of the cancer tissues of the vehicle-treated group and the ginsenoside F2-treated group were compared.

[4] = tested on: liver cancer-induced mice; assay: Serum ALT and AST in liver cancer-induced mice (VetTEST); assay type: in vivo, mouse; conditions: 50 mg/kg three times a week for 20 weeks, vs vehicle-treated group
Procedure: as §2
Blood was collected from the abdominal aorta of the mice sacrificed in Example 3-1 above and centrifuged at 3,300 rpm for 10 minutes using a centrifuge, and then the serum was isolated only. Subsequently, the alanine aminotransferase (ALT), aspartate aminotransferase (AST) and triglyceride were measured by a VetTEST® (IDEXX, USA) according to the experimental method provided by the manufacturer using a kit provided by IDEXX Laboratories (USA).

[5] = tested on: liver cancer-induced mice; assay: Liver histology (H&E) and flow cytometry of liver immune cells in liver cancer-induced mice; assay type: in vivo, mouse; conditions: vs vehicle-treated group
Procedure: as §2
The mice sacrificed in Example 3-1 above were cut open ventrally to remove the liver, and then H&E ([…] and eosin) staining was performed to observe the histological changes of the liver.
In order to specifically measure the activity of the immune cells, the immune cells were isolated from the removed liver, and the stained cells were analyzed via a flow cytometer (LSRII, BD bioscience) using the markers shown in Table 1.

[6] = 50 mg/kg three times a week for 20 weeks, FIG. 6a

With `CC(C)=CCC[C@](C)(O[C@@H]1O[C@H](CO)[C@@H](O)[C@H](O)[C@H]1O)[C@H]1CC[C@]2(C)[C@@H]1[C@H](O)C[C@@H]1[C@@]3(C)CC[C@H](O[C@@H]4O[C@H](CO)[C@@H](O)[C@H](O)[C@H]4O)C(C)(C)[C@@H]3CC[C@]12C` [ginsenoside F2] the “survival rate of human liver cancer cell line (Hep3B)” value (Hep3B cells) was “decreased depending on the concentration of ginsenoside F2”, the “survival rate of mouse liver cancer cell line (Hepa1-6)” value (Hepa1-6 cells) was “decreased depending on the concentration of ginsenoside F2” and the “survival rate of mouse normal hepatocytes” value (mouse normal hepatocytes) was “almost no change was observed”. The “cell death under phase contrast microscope” value ([1]; FIG. 2a) was “cell death of human liver cancer cell line (Hep3B) was induced”, the “number of cells stained to DAPI” value ([1]; fluorescence microscope) was “no difference” and the “number of cells stained to TUNEL” value ([1]; fluorescence microscope, FIGS. 2a and 2b) was “increased depending on the concentration of ginsenoside F2”. For the same compound, the “fragmented genomic DNA” value [2] was “increased with increasing concentration of ginsenoside F2”, the body weight [3] was “no difference” and the “number of cancer tissues” value [3] was “reduced more than twice”. For the same compound, the “size of cancer tissues” value [3] was “significantly reduced”, the “weight of liver tissues” value [3] was “reduced” and the “serum ALT value” ([4]; FIG. 5a) was “reduced”. For the same compound, the “serum AST value” ([4]; FIG. 5b) was “reduced”, the “formation of liver cancer (H&E histology)” value [5, 6] was “inhibited” and the “infiltration of immune cells near the liver cancer tissues (H&E)” value [5, 6] was “increased”. For the same compound, the “number of CD8 T cells in liver” value ([5]; flow cytometry, FIG. 6b) was “increase”, the “number of macrophages in liver” value ([5]; flow cytometry, FIG. 6b) was “increase” and the “number of natural killer T cells in liver” value ([5]; flow cytometry, FIG. 6b) was “increase”.

From US9943534B2, “Composition for preventing or treating liver cancer containing ginsenoside F2” (INTELLIGENT SYNTHETIC BIOLOGY CENTER, priority 2016, dated 2018)
